Experiments:
[1] = Tmax in cynomolgus monkey at 1 mg/kg, po; assay type: ADME, organism-based, Macaca fascicularis; conditions: in vivo
[2] = biological target: T1, Steroid 17-alpha-hydroxylase/17,20 lyase (Macaca fascicularis, UniProt Q2XVA1); assay: In vivo inhibition of CYP17A1 in cynomolgus monkey assessed as decrease in testosterone level in blood at 1 mg/kg, po measured at 8 hrs; assay type: functional, organism-based
T1 sequence (Q2XVA1 whole entry): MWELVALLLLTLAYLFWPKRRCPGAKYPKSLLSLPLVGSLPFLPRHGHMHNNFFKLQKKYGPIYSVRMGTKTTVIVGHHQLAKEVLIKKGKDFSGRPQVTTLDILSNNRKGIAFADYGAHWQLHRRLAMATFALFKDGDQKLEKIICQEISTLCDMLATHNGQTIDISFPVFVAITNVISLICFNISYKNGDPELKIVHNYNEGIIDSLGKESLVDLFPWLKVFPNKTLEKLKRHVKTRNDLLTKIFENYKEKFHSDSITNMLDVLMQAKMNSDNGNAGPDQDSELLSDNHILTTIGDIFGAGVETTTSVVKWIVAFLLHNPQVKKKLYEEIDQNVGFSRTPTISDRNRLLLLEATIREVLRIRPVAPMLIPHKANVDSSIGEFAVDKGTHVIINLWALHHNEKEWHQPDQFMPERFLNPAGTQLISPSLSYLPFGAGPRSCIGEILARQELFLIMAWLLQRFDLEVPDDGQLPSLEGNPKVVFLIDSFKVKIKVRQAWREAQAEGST

[3] = Oral bioavailability in cynomolgus monkey at 1 mg/kg; assay type: ADME, organism-based, Macaca fascicularis; conditions: in vivo
[4] = Cmax in cynomolgus monkey at 1 mg/kg, po; assay type: ADME, organism-based, Macaca fascicularis; parameters: dose 1 mg/kg, route po; conditions: in vivo
Cytochrome P450 1A2 = biological target: T2, Cytochrome P450 1A2 (Homo sapiens, UniProt P05177); assay: Inhibition of CYP1A2 (unknown origin); assay type: ADME
T2 sequence (P05177 whole entry): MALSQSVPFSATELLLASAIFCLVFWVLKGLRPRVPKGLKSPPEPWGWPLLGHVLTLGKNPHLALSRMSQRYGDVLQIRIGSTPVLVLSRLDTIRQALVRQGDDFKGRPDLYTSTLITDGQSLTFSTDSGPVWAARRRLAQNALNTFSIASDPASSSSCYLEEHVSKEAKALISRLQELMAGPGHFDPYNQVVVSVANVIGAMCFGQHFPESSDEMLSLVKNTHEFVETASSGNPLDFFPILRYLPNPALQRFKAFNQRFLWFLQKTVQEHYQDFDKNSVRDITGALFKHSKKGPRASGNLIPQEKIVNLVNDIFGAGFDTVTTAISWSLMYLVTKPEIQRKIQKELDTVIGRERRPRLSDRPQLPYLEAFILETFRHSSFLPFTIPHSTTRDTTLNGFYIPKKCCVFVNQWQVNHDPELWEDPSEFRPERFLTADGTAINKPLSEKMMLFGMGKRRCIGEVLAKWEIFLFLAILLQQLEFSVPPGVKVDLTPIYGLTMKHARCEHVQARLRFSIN

[5] = biological target: T1, Steroid 17-alpha-hydroxylase/17,20 lyase; assay: In vivo inhibition of CYP17A1 in cynomolgus monkey assessed as increase in progesterone level in blood at 1 mg/kg, po measured at 4 hrs; assay type: functional, organism-based
[6] = biological target: T1, Steroid 17-alpha-hydroxylase/17,20 lyase; assay: Inhibition of cynomolgus monkey CYP17A1; assay type: ADME
Cytochrome P450 3A4 = Cytochrome P450 3A4 (Homo sapiens, UniProt P08684); assay: Inhibition of recombinant human CYP3A4; assay type: ADME
Chain of Cytochrome P450 3A4 (P08684 whole entry): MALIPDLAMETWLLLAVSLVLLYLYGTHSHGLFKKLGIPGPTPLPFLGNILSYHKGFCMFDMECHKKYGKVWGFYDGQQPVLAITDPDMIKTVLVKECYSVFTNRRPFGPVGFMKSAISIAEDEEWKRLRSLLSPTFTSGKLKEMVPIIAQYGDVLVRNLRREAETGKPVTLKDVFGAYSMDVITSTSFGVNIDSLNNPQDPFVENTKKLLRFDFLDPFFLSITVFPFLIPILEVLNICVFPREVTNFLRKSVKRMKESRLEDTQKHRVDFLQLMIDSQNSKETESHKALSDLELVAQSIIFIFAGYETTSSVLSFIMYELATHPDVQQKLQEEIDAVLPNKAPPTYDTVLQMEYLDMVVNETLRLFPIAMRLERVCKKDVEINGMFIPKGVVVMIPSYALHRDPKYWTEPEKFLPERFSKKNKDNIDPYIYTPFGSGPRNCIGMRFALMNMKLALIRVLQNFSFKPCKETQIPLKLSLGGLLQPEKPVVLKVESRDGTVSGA

[7] = biological target: T1, Steroid 17-alpha-hydroxylase/17,20 lyase; assay: In vivo inhibition of CYP17A1 in cynomolgus monkey assessed as decrease in testosterone level in blood at 1 mg/kg, po measured upto 24 hrs relative to control; assay type: functional, organism-based; parameters: scale not given: the % may be the effect or the level left
[8] = Metabolic stability in human liver microsome assessed as half-life; assay type: ADME; conditions: liver microsomes
Cytochrome P450 2C19 = Cytochrome P450 2C19 (Homo sapiens, UniProt P33261); assay: Inhibition of recombinant human CYP2C19; assay type: ADME
Chain of Cytochrome P450 2C19 (P33261 whole entry): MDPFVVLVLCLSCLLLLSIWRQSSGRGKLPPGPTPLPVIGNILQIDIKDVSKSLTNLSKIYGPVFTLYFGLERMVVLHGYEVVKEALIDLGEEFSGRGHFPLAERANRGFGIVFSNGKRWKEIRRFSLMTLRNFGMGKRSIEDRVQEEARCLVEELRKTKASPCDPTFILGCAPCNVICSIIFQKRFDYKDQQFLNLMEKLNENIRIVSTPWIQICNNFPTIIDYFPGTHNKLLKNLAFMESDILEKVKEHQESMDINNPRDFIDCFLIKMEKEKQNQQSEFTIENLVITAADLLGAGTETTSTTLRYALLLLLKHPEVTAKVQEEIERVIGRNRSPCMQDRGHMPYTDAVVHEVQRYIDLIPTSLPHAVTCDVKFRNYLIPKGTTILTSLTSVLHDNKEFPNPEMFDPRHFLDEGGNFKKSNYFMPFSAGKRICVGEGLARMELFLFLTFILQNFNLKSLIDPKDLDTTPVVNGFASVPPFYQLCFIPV

[9] = biological target: T1, Steroid 17-alpha-hydroxylase/17,20 lyase; assay: Inhibition of cynomolgus monkey CYP17A1 lyase activity; assay type: ADME
Cytochrome P450 2C9 = Cytochrome P450 2C9 (Homo sapiens, UniProt P11712); assay: Inhibition of recombinant human CYP2C9; assay type: ADME
Chain of Cytochrome P450 2C9 (P11712 whole entry): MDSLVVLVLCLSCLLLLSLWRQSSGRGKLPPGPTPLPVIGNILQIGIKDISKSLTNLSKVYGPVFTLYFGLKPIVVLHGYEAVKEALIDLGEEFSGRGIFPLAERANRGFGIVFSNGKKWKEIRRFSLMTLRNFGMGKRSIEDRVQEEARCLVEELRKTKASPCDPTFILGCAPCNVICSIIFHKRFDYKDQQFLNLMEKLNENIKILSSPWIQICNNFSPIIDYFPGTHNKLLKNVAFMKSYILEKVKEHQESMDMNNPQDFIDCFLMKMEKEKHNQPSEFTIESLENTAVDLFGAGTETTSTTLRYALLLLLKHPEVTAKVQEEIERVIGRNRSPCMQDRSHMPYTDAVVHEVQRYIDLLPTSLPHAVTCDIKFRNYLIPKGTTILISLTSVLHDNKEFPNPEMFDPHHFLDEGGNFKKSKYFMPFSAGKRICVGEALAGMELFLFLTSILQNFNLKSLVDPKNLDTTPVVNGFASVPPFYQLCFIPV

[10] = biological target: T1, Steroid 17-alpha-hydroxylase/17,20 lyase; assay: In vivo inhibition of CYP17A1 in cynomolgus monkey assessed as change in cortisol level in blood at 1 mg/kg, po measured upto 24 hrs; assay type: functional, organism-based
[11] = biological target: T1, Steroid 17-alpha-hydroxylase/17,20 lyase; assay: Inhibition of cynomolgus monkey adrenal gland CYP17A1; assay type: ADME, tissue-based
[12] = Metabolic stability in dog liver microsome assessed as half-life; assay type: ADME, Canis lupus familiaris; conditions: liver microsomes
[13] = Permeability across apical to basolateral side in human Caco-2 cells; assay type: ADME, cell-based; conditions: read-out: permeability
[14] = Permeability across basolateral to apical side in human Caco-2 cells; assay type: ADME, cell-based; conditions: read-out: permeability
Steroid 21-hydroxylase = biological target: T3, Steroid 21-hydroxylase (Homo sapiens, UniProt P08686); assay: Inhibition of human CYP21A2; assay type: ADME
T3 sequence (P08686 whole entry): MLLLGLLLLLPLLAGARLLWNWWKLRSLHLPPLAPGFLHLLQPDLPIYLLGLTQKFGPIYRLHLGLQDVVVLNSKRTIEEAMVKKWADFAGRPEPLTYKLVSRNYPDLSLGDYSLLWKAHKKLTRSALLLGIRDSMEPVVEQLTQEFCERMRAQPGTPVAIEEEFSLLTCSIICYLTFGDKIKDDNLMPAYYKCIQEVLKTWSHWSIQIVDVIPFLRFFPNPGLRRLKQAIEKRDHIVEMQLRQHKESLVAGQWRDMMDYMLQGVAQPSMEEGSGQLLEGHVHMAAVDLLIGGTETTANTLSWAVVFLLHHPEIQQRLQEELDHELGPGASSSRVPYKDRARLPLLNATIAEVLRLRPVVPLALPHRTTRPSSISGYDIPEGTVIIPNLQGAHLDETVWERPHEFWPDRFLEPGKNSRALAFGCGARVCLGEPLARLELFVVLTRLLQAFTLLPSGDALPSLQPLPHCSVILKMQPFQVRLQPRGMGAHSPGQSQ

[15] = biological target: T1, Steroid 17-alpha-hydroxylase/17,20 lyase; assay: In vivo inhibition of CYP17A1 in cynomolgus monkey assessed as increase in hydroxyprogesterone level in blood at 1 mg/kg, po measured at 4 hrs; assay type: functional, organism-based
[16] = Inhibition of cynomolgus monkey CYP11B1; assay type: ADME, Macaca fascicularis
[17] = biological target: T1, Steroid 17-alpha-hydroxylase/17,20 lyase; assay: In vivo inhibition of CYP17A1 in cynomolgus monkey assessed as fold increase in hydroxyprogesterone level in blood at 1 mg/kg, po measured upto 24 hrs; assay type: functional, organism-based
[18] = Volume of distribution at steady state in cynomolgus monkey at 1 mg/kg, iv; assay type: ADME, organism-based, Macaca fascicularis; conditions: in vivo, read-out: Vdss
[19] = Metabolic stability in cynomolgus monkey liver microsome assessed as half-life; assay type: ADME, Macaca fascicularis; conditions: liver microsomes
[20] = Metabolic stability in dog liver microsomes assessed as parent compound remaining relative to control; assay type: ADME, Canis lupus familiaris, Microsome
[21] = biological target: T1, Steroid 17-alpha-hydroxylase/17,20 lyase; assay: Inhibition of cynomolgus monkey CYP17A1 hydroxylase activity; assay type: ADME

Structure (SMILES): Nc1ncncc1-c1ccnc2c1cnn2-c1ccc(F)cc1
- Tmax [1]: 1 h
- Activity [2]: 43 ng/dL
- bioavailability [3]: 100%
- Cmax [4]: 1550 nM
- IC50 (Cytochrome P450 1A2): > 40000 nM
- Activity [5]: 27 ng/dL
- IC50 [6]: 2 nM
- IC50 (Cytochrome P450 3A4): 36000 nM
- Activity [7]: 83%
- half-life [8]: > 2 h
- IC50 (Cytochrome P450 2C19): > 40000 nM
- IC50 [9]: 6 nM
- IC50 (Cytochrome P450 2C9): > 40000 nM
- inhibition (INH) [10]: Not Active
- IC50 [11]: 2 nM
- half-life [12]: 0.767 h
- Papp A→B [13]: 28.2 ×10⁻⁶ cm/s
- Papp B→A [14]: 21.2 ×10⁻⁶ cm/s
- IC50 (Steroid 21-hydroxylase): > 10000 nM
- Activity [15]: 7.7 ng/dL
- IC50 [16]: > 10000 nM
- fold change (FC) [17]: 14
- Vd [18]: 3.5 L/kg
- half-life [19]: > 2 h
- Stability [20]: 86%
- IC50 [21]: 30 nM
